Measured values as given in article PMC10535880, “Caco-2 Cell Sheet Partially Laminated with HT29-MTX Cells as a Novel In Vitro Model of Gut Epithelium Drug Permeability” (Pharmaceutics, 2023).
Read-outs that look alike come from different tables or passages of the source.

Key:
HT29-MTX-E12 cells = tested on: HT29-MTX-E12 cells; design: method as in PMID 23869232; conditions: added during the first six days of semi-wet interface with mechanical stimulation; 28 days of incubation; without addition 3–5 μm; cited from earlier work
[1] = tested on: Caco-2/HT29-MTX partially laminated model
Method: In the short-term culture model, Caco-2 monolayers were prepared according to the protocol of the Corning® BioCoat^TM Intestinal Epithelial Cell Environment Kit (Corning Inc., Corning, NY, USA) with slight modifications with reference to the procedure reported by Yamashita et al. [20]. Briefly, Caco-2 cells were seeded at a density of 1 × 10^5 cells/insert onto 24-well Transwell® inserts (0.4 μm pore size, Corning Inc.) using a basal seeding medium. After 24 h of incubation (37 °C, 5% CO2), the basal seeding medium was replaced with the enterocyte differential medium. After an additional 72 h of incubation, a cell monolayer was formed, and the integrity was evaluated via TEER using an epithelial volt-ohmmeter (EVOM2, World Precision Instruments Inc., Sarasota, FL, USA). In the long-term culture model, Caco-2 cells were seeded at a density of 1 × 10^4 cells/insert onto 24-well Transwell® inserts using DMEM containing 10% FBS, 1% nonessential amino acids, and 1% penicillin-streptomycin for 21 days.
(§1) When preparing the partially laminated model, a Caco-2 monolayer with a TEER value ≥ 2000 Ω·cm^2 was formed first, and HT29-MTX cells were then laminated onto the Caco-2 monolayer at ratios of 1:9, 3:7, and 5:5, followed by incubation for the predetermined time. As for the coculture model, Caco-2 and HT29-MTX cells were seeded simultaneously in the different ratios and incubated for the predetermined time to form a hybrid monolayer.
(§2) Briefly, the culture medium on both sides of the Transwell® insert was replaced with HBSS and washed twice with prewarmed HBSS. […] The Papp coefficients of the model drugs were calculated using the following equation [19, 21]:(1) Papp=dQ/dt×1/A.C0 where dQ/dt is the velocity of solutes transported across the culture cell sheet in time, C0 is the concentration of the solute in the apical compartment at time zero, and A is the cross-sectional area of the cell sheet in contact with the apical solution.
The supernatant was collected as a sample for LC-MS/MS. […]

[2] = tested on: Caco-2/HT29-MTX coculture model
Method: as §1, §2

Papp compared to that in the Caco-2 monolayer ([1]; 5:5 ratio of Caco-2/HT29-MTX) [times]	Papp compared to that in the Caco-2 monolayer ([1]; 7:3 ratio of Caco-2/HT29-MTX) [times]	Papp compared to that in the Caco-2 monolayer ([1]; 9:1 ratio of Caco-2/HT29-MTX)	Papp compared to that in the Caco-2 monolayer model [2]	Papp compared to that of the HT29-MTX monolayer ([2]; independent of the Caco-2:HT29-MTX ratio)	Molecule	mucus layer thickness (HT29-MTX-E12 cells)
–	–	–	–	–	C[C@H](NC(=O)Cc1cc(F)cc(F)c1)C(=O)NC(C(=O)OC(C)(C)C)c1ccccc1 (stereo partly drawn) [N-[(3,5-difluorophenyl)acetyl]-L-alanyl-2-phenyl]glycine-1,1-dimethylethyl ester]	25–30 μm
1.5	1.5	similar	significantly higher	similar	Lucifer yellow	–
